Test results from paper PMC9964390, “Design, Synthesis and Phenotypic Profiling of Simplified Gedatolisib Analogues” (Pharmaceuticals, 2023).
≈ marks a conversion by molar mass, not a printed value. Like-named read-outs stand apart in the source and are kept apart here.

What was measured:
[1] = tested on: human peripheral blood mononuclear cells (PBMCs); assay: PBMC viability assay (72 h MTT); format: cell-based; conditions: highest concentration studied 50 μM
Description: Donor blood was collected and EDTA (ethylenediamine tetraacetic acid) was added to the sterile laminar flow in a 1:20 ratio. In a 15 mL falcon tube, 4.5 mL of Ficoll gradient was added, and then 9 mL of blood was added over the gradient in a 1:2 ratio. The tubes were centrifuged for 40 min at a speed of 750× g with an acceleration of 2 and a brake of 0. The ring of mononuclear cells formed was collected and added to a new tube.
Tubes with PBMCs were centrifuged in an incomplete RPMI medium for 10 min at 580× g with an acceleration of 8 and a brake of 9. The supernatant was discarded, and the cells were resuspended in 1 mL of RPMI medium supplemented with 20% […]. PBMCs were added to 96-well plates at a concentration of 1 × 10^5 cells per well. […]
After incubation, each well received 20 µL of MTT (5 mg/mL), followed by incubation for 4 h in the CO2 oven and centrifugation for 12 min at 1200× g. The supernatant from each well was taken, and 100 µL of isopropyl alcohol was added to solubilize the formazan crystals. The absorbance of the plates was measured at 570 nm in the Flex Station equipment.

[2] = tested on: CCRF-CEM (human leukemia cell line); set-up: method as in Gazi and coworkers [14]; conditions: ref Gazi and coworkers [14]; cited from earlier work
[3] = tested on: MCF7 (breast cancer cells); set-up: method as in Mallon and coworkers [15]; conditions: ref Mallon and coworkers [15]; cited from earlier work
[4] = pH-dependent aqueous solubility (UV spectrophotometry); format: physicochemical; conditions: aqueous buffer, thermodynamic from solid, 37 °C
Description: A stock solution of the target compound was prepared by dissolving 1 mg in methanol, and the wavelength of greatest absorption of each compound was obtained by scanning between wavelengths from 200 nm to 500 nm. Six dilutions were prepared from the stock solution and the absorbance reading in the UV spectrophotometer (SpectraMax M5, Molecular Devices, USA). The calibration curve with linear regression was created with the values obtained, and the solubility test was measured by correlating the concentration with the absorbance obtained by ultraviolet. Each compound was added in excess at phosphate buffer solution pH 5.8 and 7.4 to obtain a supersaturated solution that was kept under stirring for 4 h at 37 °C and then was filtered through a 0.45 µm filter for reading at the corresponding wavelengths. The solubility was determined through the equation of the straight line obtained by the linear regression of the calibration curve of the compounds [24, 25].

[5] = tested on: PI3K activation and phosphorylation in MOLT-4 cell line; assay: Muse PI3K Activation Dual Detection Kit; format: cell-based, human; conditions: MOLT-4, concentration 10 times lower than its CC50
Description: The methodology evaluates the activation and phosphorylation of PI3K and was performed from the labelling with the Guava Muse Luminex® PI3K Activation Dual Detection Kit (catalog n^o. MCH200103, Luminex) containing the anti-AKT/PKB-PECy5 antibody to measure total PI3K and the anti-phospho-AKT (Ser473)-Alexa Fluor® 555 antibody for measurement of activated PI3K.
Following 48 h of incubation in an incubator at 37 °C with 5% CO2, 1 mL of the cell solution was transferred to an Eppendorf tube, washed with PBS and centrifuged at 300× g for 5 min. The supernatant was discarded, and the pellet formed was resuspended in 500 µL of PBS. The samples were again centrifuged at 300× g for 5 min and the supernatant discarded.
Then the cell solutions were resuspended in 200 µL of assay buffer (Part no. CS202124), followed by the addition of 200 µL of fixation buffer (Part n^o. CS202122), ending up with a total volume of 400 µL per sample. The samples were incubated for 5 min on ice and centrifuged at 300× g for 5 min and the supernatant discarded.
Cells were permeabilized by adding 200 µL of ice-cold permeabilization buffer (Part n^o. CS202125) and then incubated on ice for 5 min and centrifuged at 300× g for 5 min, and the supernatant was discarded. The formed pellets were resuspended in 450 µL of assay buffer and vortexed at medium speed. In total, 90 µL of the solution from each sample was aliquoted into a new tube, and 10 µL of the cocktail solution containing Anti-phospho-Akt (Ser473), Alexa Fluor®555 and Anti-Akt/PKB, Pecy5 was added. The samples were homogenised and incubated for 30 min in the dark at room temperature.
After the incubation step, 100 µL of assay buffer was added per sample and centrifuged at 300× g for 5 min, and the supernatant was discarded. The formed pellets were resuspended in 200 µL of assay buffer and vortexed, and the samples were read in Guava Muse Luminex®. Data from three independent experiments performed in duplicate were analysed in the Prism6 program to determine the percentage of cells expressing activated and inactivated PI3K.

[6] = Microsomal metabolic stability; format: in vitro ADME; conditions: for Metabolization Rates: 10 μM; for half-life at 10 μM / recovery at 10 µM: rat
Description: To investigate the metabolic stability of LASSBio-2252 (5f), the compound was incubated with rat liver microsomes in the presence and in the absence of the NADPH-generating system. Metabolization rate, half-life (t1/2) and apparent intrinsic clearance (Clapp) were calculated.
The metabolic stability of compound 5f (LASSBio-2252) was studied as previously described, and 1 mg/mL of […] rat microsomes was incubated with compound […] (10 μM) in the presence and in the absence of the cofactor (i.e., NADPH generating system). After mixing and incubation at 37 °C in a shaking water bath for 1 h, 500 µL cold acetonitrile containing the internal standard was added to terminate the reaction at different time intervals (0, 15, 30, 45 and 60 min). After mixing and centrifugation at 10,500× g for 15 min at 4 °C, the supernatant was filtered and then was injected into the HPLC system using a mixture of methanol: water acidified (0.1% formic acid, pH 3.0) (50:50, v/v) as the mobile phase at a flow rate of 1.0 mL/min. After analysing the results, the pharmacokinetic parameters were calculated as microsomal half-life (t1/2) and apparent intrinsic clearance (Clapp).

[7] = rat liver microsomes, NADPH-generating system absent
[8] = rat liver microsomes, NADPH-generating system present

SMILES	Emax (reduction of viability of PBMCs) [1] [%]	CC50 [2] [µM]	CC50 [3] [µM]	solubility at 4 h ([4]; phosphate buffer pH 5.8 (duodenum), read-out: Solubility pH 5.8) [µM]	solubility at 4 h ([4]; phosphate buffer pH 7.4 (plasma), read-out: Solubility pH 7.4) [µM]	reduction of PI3K-mediated phosphorylation [5] [%]	Elimination Rate Constant (k) [6, 7]	Metabolization Rates [6, 7] [%]	Elimination Rate Constant (k) [6, 8]	Metabolization Rates [6, 8] [%]	half-life at 10 μM ([6]; liver microsomes) [h]	recovery at 10 µM ([6]; liver microsomes, NADPH-generating system absent) [%]	recovery at 10 µM ([6]; liver microsomes, NADPH-generating system present) [%]	half-life at 10 μM [6, 7] [h]	half-life at 10 μM [6, 8] [h]
CN(C)C1CCN(C(=O)c2ccc(NC(=O)Nc3ccc(-c4nc(N5CCOCC5)nc(N5CCOCC5)n4)cc3)cc2)CC1 [Gedatolisib, gedatolisib]	33	0.023	0.036												
c1ccc(N2CCN(c3nc(N4CCCNCC4)nc(N4CCOCC4)n3)CC2)cc1 [5f, 4-(4-(1,4-Diazepan-1-yl)-6-(4-phenylpiperazin-1-yl)-1,3,5-triazin-2-yl)morpholine]				39.3 (≈ 16.7 µg/mL)	42.4 (≈ 18 µg/mL)	79	0.0017	9.09	0.0015	2.90	> 6	100	101	6.79	7.7
